The nature of test [1]: Competitive reversible inhibition of bovine pancreatic RNase A using 2',3'-cCMP as substrate assessed as inhibition constant by spectrophotometric analysis. Also on record: species or system Bos taurus.
The species named for test [2] is Bos taurus. The test can be described thus: Inhibition of bovine pancreatic RNase A using tRNA as substrate assessed as substrate degradation preincubated with compound for 3 hrs followed by substrate addition and measured after 30 mins by ethidium bromide staining based agarose gel electrophoresis analysis. Particulars: time 3.5 hrs.
A short description of test [3]: Competitive inhibition of bovine pancreatic RNase A using 2',3'-cCMP as substrate assessed as inhibition constant by spectrophotometric analysis. Further details: species or system Bos taurus.
Test [4] can be described thus: Hyperbolic partial competitive inhibition of bovine pancreatic RNase A using 2',3'-cCMP as substrate assessed as inhibition constant by spectrophotometric analysis. Also on record: species or system Bos taurus.
The nature of test [5]: Linear mixed type inhibition of bovine pancreatic RNase A using 2',3'-cCMP as substrate assessed as inhibition constant by spectrophotometric analysis. Further details: species or system Bos taurus.
Test [6] can be described thus: Uncompetitive inhibition of bovine pancreatic RNase A using 2',3'-cCMP as substrate assessed as inhibition constant by spectrophotometric analysis. Also on record: species or system Bos taurus.
Test [7] is filed under the species Bos taurus. The test can be described thus: Uncompetitive inhibition of bovine pancreatic RNase A using 2',3'-cCMP as substrate assessed as Michaelis-Menten constant (Km) by Lineweaver-burk plot analysis (reference value: 9.35 x 10^-4 M).

Each structure is given as a SMILES string. Calls of active or inactive are those of the source. No cut-off for these calls is given here.

On to `Cc1cn([C@H]2C[C@H](S(=O)(=O)O)[C@@H](CO)O2)c(=O)[nH]c1=O`, for which the Ki in test [1] came out at 2.08 µM.
On to `O=C(O)Cn1cc(COC[C@H]2O[C@@H](n3ccc(=O)n(Cc4cn(CC(=O)O)nn4)c3=O)[C@H](O)[C@@H]2O)nn1`, for which, in test [2], the inhibition result was “Active”. Also, the Ki in test [3] stood at 198 µM.
For `O=C(O)Cn1cc(Cn2c(=O)ccn([C@@H]3O[C@H](CO)[C@@H](O)[C@H]3O)c2=O)nn1` the same measures were “Active” and 55.4 µM.
For `O=C(O)CS(=O)(=O)[C@H]1[C@@H](O)[C@H](n2ccc(=O)[nH]c2=O)O[C@@H]1CO`, the Ki in test [1] was found to be 2 µM.
On to `O=C(O)Cn1cc(COC[C@H]2O[C@@H](n3ccc(=O)n(Cc4cn(CC(=O)O)nn4)c3=O)[C@H](OCc3cn(CC(=O)O)nn3)[C@@H]2OCc2cn(CC(=O)O)nn2)nn1`, for which the inhibition result in test [2] was “Active”. The Ki in test [3] came out at 74.1 µM.
As for `O=C(O)c1nnn(C[C@H]2O[C@@H](OCc3cn(CCS(=O)(=O)O)nn3)[C@H](O)[C@@H]2O)c1C(=O)O`, the Ki in test [1] is 46 µM.
Same read-out and setting: under `O=c1ccn([C@@H]2O[C@H](CO)[C@@H](S(=O)(=O)O)[C@@H]2O)c(=O)[nH]1` stands 0.96 µM; under `Nc1ccn([C@@H]2O[C@H](CO)[C@@H](S(=O)(=O)CC(=O)O)[C@H]2O)c(=O)n1`, 1.75 µM.
As for `Cc1cn([C@H]2C[C@H](OCc3cn(CC(=O)O)nn3)[C@@H](COCc3cn(CC(=O)O)nn3)O2)c(=O)n(Cc2cn(CC(=O)O)nn2)c1=O`, the inhibition entry in test [2] is “Active”. The Ki in test [4] turned out to be 2.3 µM.
Regarding `Cc1cn([C@H]2C[C@H](OCc3cn(CC(=O)O)nn3)[C@@H](COCc3cn(CC(=O)O)nn3)O2)c(=O)[nH]c1=O`, the inhibition result in test [2] is “Active”. Also, the Ki in test [5] was found to be 211 µM.
Turning to `Cc1cn([C@H]2C[C@H](OCc3cn(CC(=O)O)nn3)[C@@H](CO)O2)c(=O)n(Cc2cn(CC(=O)O)nn2)c1=O`, the inhibition result in test [2] is “Active”. In addition, in test [3], the Ki turned out to be 352 µM.
As to `Cc1cn([C@H]2C[C@H](O)[C@@H](CO)O2)c(=O)n(Cc2cn(CC(=O)O)nn2)c1=O`, the inhibition entry in test [2] is “Active”. Moreover, in test [6], the inhibition constant Ki stood at 232 µM. Also, the Km in test [7] amounted to 585 µM.
`O=S(=O)(O)CCn1cc(CO[C@@H]2O[C@H](Cn3cc(CS(=O)(=O)O)nn3)[C@@H](O)[C@H]2O)nn1`: the inhibition constant Ki in test [1] is 29 µM.

These data come from ChEMBL document CHEMBL5150053, “Carboxymethyl tethered poly(disubstituted)triazoles built on nucleoside skeletons: A unique class of ribonuclease A inhibitors designed using chemical logic” (Bioorg Med Chem, 2022).
